1 compound from US20250387382A1, “METHODS OF TREATING ESSENTIAL TREMOR” (Praxis Precision Medicines, Inc., priority 2023, published 2025) can be followed below.

The structures appear in SMILES notation.

The subject of the assay is participants with moderate to severe ET. Kind of assay: Phase 2 trial, randomized double-blind placebo-controlled part: efficacy (TETRAS mADL, ADL, mADL11, PGI-C, CGI-S). In kind it is in vivo, human. From the text: Severity of ET in this study was defined by eligibility criteria on TETRAS-ADL, CGI-S, and TETRAS-PS items 6 and 7. This dose range finding trial is comprised of three parts. The first part was randomized, double-blinded (DB), and placebo-controlled, the second part was an optional extension that consisted of an Extension DB Lead-in Period followed by an Extension Open-label (OL) Period. Further, there was also a third part available for completers of the Day 99 visit, which third part was comprised of a blinded cross-over period (referred to as cross-over period) after re-randomization for 6 weeks, after which all completers would receive formula (I) in an open-label fashion. […] The primary objective of this trial was to evaluate the efficacy of Compound 1 compared to placebo after 56 days (end of randomized, DB, placebo-controlled part) of dosing in participants with ET with moderate to severe tremor utilizing modified ADL as the primary efficacy endpoint. Secondary and exploratory objectives include further efficacy evaluations, an evaluation of the safety and tolerability, and determination of plasma concentrations of formula (I) and its metabolites. The design of the Phase 2 trial is illustrated in FIG. 1.
Participants who continued to meet all clinical trial entry criteria on Day 1 were randomized to receive DB treatment with Compound 1 or placebo every morning (QAM) from Day 1 through Day 56. Participants were randomized to 1 of 2 fixed-dose regimens or placebo in a 1:1:1 ratio. No dosage adjustments were allowed.
On Days 14, 28, 42, and 56, participants returned to the clinic for PK sampling, dosing, efficacy, and safety assessments. Key efficacy assessments at these visits included TETRAS-PS, TETRAS ADL, CGI-S, CGI-I, and PGI C.
Fixed titration regimens were used (Table 1). Participants were not allowed to adjust the number of tablets per day.
Selected items from the TETRAS-ADL and TETRAS-PS (or TETRAS-CUL, as appropriate) were scored in a modified manner and combined to create a TETRAS modified total score. Items 1-11 in the TETRAS ADL subscale and items 6 and 7 of the TETRAS-PS were used, with scoring adjusted so that response options 0 and 1 were combined into a single response of “0=Normal.” Further, scores of 2, 3, and 4 were adjusted to 1, 2, and 3, respectively. The TETRAS modified total score were the sum of these adjusted TETRAS-ADL and TETRAS PS items, having a possible range of 0 to 42, where larger values represent increased direct tremor impact to activities of daily living. The items that are included in the TETRAS-modified total score are illustrated in FIG. 2.
The primary efficacy measure in this clinical trial was change from baseline in mADL at day 56. Ulixacaltamide effect on individual mADL items was determined by calculating the fold-change adjusted by placebo change at Day 56 in mADL for individual mADL items. The secondary efficacy measures included change in Clinical Global Impression-Severity (CGI-S) score, Patient Global Impression-Change (PGI-C) score, TETRAS-ADL total score, TETRAS-UL score, TETRAS-CUL score and TETRAS-PS score.

`CC(C)(C)NC(=O)CN1CCC(CNC(=O)c2cc(F)cc(Cl)c2)CC1` [Compound 1, N-((1-(2-(tert-butylamino)-2-oxoethyl)piperidin-4-yl)methyl)-3-chloro-5-fluorobenzamide]: the “mADL11 treatment effect relative to placebo” value (Day 14, participants without intention tremor) is reported as 1.03 points. For the same compound, the “LSM mADL11 change from baseline, treatment effect relative to placebo” value (Day 28) was found to be 1.44. For the same compound, the “TETRAS PS items (dominant hand handwriting, left and right hand spirals), improvement vs placebo” value (Day 56) is on record as “less improvement than those receiving placebo”. For the same compound, the “mADL11 LSM treatment difference vs placebo” value (after 56 days, 95% CI −3.565, −0.066, nominal p <0.05) is −1.82. Moreover, the “mADL and mADL11 scores vs. placebo at each scored timepoint” value (after day 14, FIG. 15) was “improvement”. Also, the “Magnitude of benefit on mADL11 vs placebo, 60 mg vs 100 mg groups” value (change from baseline versus placebo) is “largely similar”. Under “daily doses ranging from 20 to 120 mg for up to 56 days”, the “Modified ADL (mADL) scores in the Phase 2 trials” value was “reduced modified ADL (mADL) scores”. Besides, for the setting “day 56, FIG. 9”, the “mADL scores, patients showing improvement vs placebo” value was “more patients taking ulixacaltamide showed improvements”. The “ADL score, average reduction compared to baseline” value (day 56, n=78) came to 3.6 points. Also, the “ADL scored items with consistent effect relative to placebo” value (individual items, Day 56) is 8 of 11. Further, for the setting “mITT”, the “Patients improved on CGI-S scale” value is recorded as 42% and the “Patients improved on PGI-C scale” value was determined as 47%. Moreover, the “mADL-scored items vs baseline in ET patients who do not have intention tremor” value (mITT excluding intention tremor, FIGS. 18 and 19) is given as “larger improvement”. Also, where the note is “mITT patients without intention tremor, FIG. 20”, the “Placebo-adjusted mADL excluding PS, 60 mg vs 100 mg regimens” value is reported as “consistent effect observed across both tested dosing regimens”. Under “mITT, Day 56, p=0.126”, the “mADL LS mean difference vs. placebo” value worked out at 1.57. For the same compound, for the setting “n=78, placebo 0.88 points”, the “Modified ADL score, mean decrease” value came out at 2.69 points. Further, the “Patients achieving at least a 3-point improvement in mADL11” value (patients on propranolol and ulixacaltamide, 25% for propranolol and placebo) is recorded as 48%. Under “post hoc, Day 56, mITT, p=0.042”, the “mADL excluding PS items, LS mean difference vs. placebo” value amounted to 1.81. For the same compound, under “post-hoc responder analysis, 0.5 SD threshold, mITT”, the “Treated participants with at least a 2 point improvement in total score” value is given as “greater than 50%”. For the same compound, the “Treated subjects with at least a 4 point improvement in total score” value (post-hoc responder analysis, 1 SD threshold, mITT) is recorded as “roughly 40%”. Moreover, the “Response rates vs placebo for mADL and mADL excluding PS items” value (post-hoc responder analysis, MCID distribution method, mITT) is listed as “greater response rates”. Also, the “Change in TETRAS-ADL, LS mean difference vs. placebo” value (secondary endpoint, p=0.026) came out at 2.53.
